{
  "source": "paper PMC11251039",
  "about": "“Harnessing cholesterol uptake of malaria parasites for therapeutic applications” (EMBO Molecular Medicine, 2024)",
  "system": "asexual P. falciparum 3D7 wild-type parasites",
  "experiment": "P. falciparum asexual growth inhibition assay (SYBR Safe DNA replication)",
  "type": "cell-based, Plasmodium falciparum",
  "parameters": "Figure 5B dose-response source data (growth, replicate values): unit not given here",
  "protocol": "P. falciparum asexual parasite assays commenced with ring-stage parasites at 1% parasitaemia and 1% haematocrit. 200 nM chloroquine (Sigma C6628) or artesunate (Sigma A3731) was used as a no-growth control. DNA replication (indicating growth) was measured at the specified time using SYBR Safe DNA Gel Stain (Invitrogen 33102) and a fluorescence microplate reader (Smilkstein et al, [2004]; Spry et al, [2013]). […]\nGrowth and Viability Inhibition Assays:\nPlasmodium falciparum Growth Inhibition Assays:\nP. falciparum parasites were maintained under routine culture conditions in red blood cells and RPMI 1640-Hepes with Glutamax, supplemented with 10 mM D-glucose, 480 μM hypoxanthine, 20 μg/mL gentamicin, 0.375% (w/v) AlbuMAXTM II (Thermo Fisher 11021029), and 2.5% v/v heat-inactivated human serum (17). Cultures were maintained at 37 °C […]\nwildtype parasites except for the ring stage survival assay, as specified. Cultures were synchronised with 5% w/v D-sorbitol (18).\nGrowth inhibition was investigated according to methods described by Smilkstein et al. (19) with modifications by Spry et al. (20). Compounds or solvent controls (DMSO, ethanol, or ethyl acetate) were serially diluted 2-fold across flat-bottom 96-well plates. Culture media without compound was used as a negative control. 200 nM chloroquine (Sigma C6628) or artesunate (Sigma A3731) was used as a positive control to determine background fluorescence. The parasitaemia of a culture containing predominantly ring stage parasites was counted by Giemsa smear. The parasitaemia was adjusted to 1% by addition of fresh uRBCs and added to the plate at a final haematocrit of 1%, with 200 µL per well. The plates were incubated at 37 °C under humid microaerophilic conditions. After 24, 48, or 72 hours, the plates were transferred to a -18 °C freezer to stop the assay and lyse cells. Plates were thawed and lysate was mixed 1:1 with SYBR Safe DNA Gel Stain (Invitrogen 33102) (final concentration 1/10,000) diluted in lysis buffer (20 mM TRIS, 5 mM EDTA, 0.008% w/v Saponin, 0.08% w/v Triton-X 100, pH 7.5). Fluorescence was detected at 490 nm excitation/ 520 nm emission on a FLUOstar Optima fluorescence plate reader (BMG Labtech).",
  "key": {"[1]": {"settings": "Plasmodium falciparum, 3D7, 72 h; read-out: IC50, P. falciparum asexual growth inhibition"}, "[2]": {"settings": "Plasmodium falciparum, 3D7; 24 h, starting at ring stages; read-out: IC50, P. falciparum asexual growth inhibition"}},
  "note": "Where “and” joins values, the source holds several entries; their conditions need not be identical. Identical values can stand only once. Like-named read-outs stand apart in the source and are kept apart here.",
  "data": [
    {"compound": "COc1cc(NC(C)CCCNC(=O)CCC(=O)O[C@H]2CC[C@@]3(C)C(=CC[C@H]4[C@@H]5CC[C@H]([C@H](C)CCCC(C)C)[C@@]5(C)CC[C@@H]43)C2)c2ncccc2c1", "note": "(some centres unmarked) [C-3-PQ]", "values": [
      {"measurement": "P. falciparum asexual growth, percentage of control", "setting": "0.390625000 uM, 24 h, replicate values, source data Fig. 2B; listed as BC64C", "result": "131.7% and 66.76% and 95.56% and 108.4% and 112% and 85% and 101.8% and 112.2% and 92.84%"},
      {"measurement": "P. falciparum asexual growth, percentage of control", "setting": "0.781250000 uM, 24 h, replicate values, source data Fig. 2B; listed as BC64C", "result": "150.2% and 111.9% and 88.57% and 84.46% and 114.9% and 73.34% and 95.38% and 91.75% and 80.98%"},
      {"measurement": "P. falciparum asexual growth, percentage of control", "setting": "1.562500000 uM, 24 h, replicate values, source data Fig. 2B; listed as BC64C", "result": "126.1% and 129.8% and 105.9% and 128.7% and 121.9% and 90.74% and 123.6% and 79.12% and 103.6%"},
      {"measurement": "P. falciparum asexual growth, percentage of control", "setting": "3.125000000 uM, 24 h, replicate values, source data Fig. 2B; listed as BC64C", "result": "126.5% and 121.8% and 108.8% and 133% and 55.06% and 86.31% and 120.7% and 105.6% and 95.15%"},
      {"measurement": "P. falciparum asexual growth, percentage of control", "setting": "6.250000000 uM, 24 h, replicate values, source data Fig. 2B; listed as BC64C", "result": "133.8% and 98.67% and 102.2% and 109% and 94.05% and 103.7% and 108.1% and 76.85% and 81.21%"},
      {"measurement": "P. falciparum asexual growth, percentage of control", "setting": "12.500000000 uM, 24 h, replicate values, source data Fig. 2B; listed as BC64C", "result": "157.5% and 116.3% and 102.8% and 135.3% and 108.6% and 85.91% and 111.9% and 81.39% and 66.81%"},
      {"measurement": "P. falciparum asexual growth, percentage of control", "setting": "25.000000000 uM, 24 h, replicate values, source data Fig. 2B; listed as BC64C", "result": "149.9% and 129.1% and 105.1% and 150.2% and 115.2% and 49.33% and 125.1% and 71.79% and 57.24%"},
      {"measurement": "P. falciparum asexual growth, percentage of control", "setting": "50.000000000 uM, 24 h, replicate values, source data Fig. 2B; listed as BC64C", "result": "150.4% and 131.3% and 98.75% and 124.5% and 117.8% and 89.9% and 146.3% and 135.4% and 89.26%"},
      {"measurement": "P. falciparum asexual growth, percentage of control", "setting": "100.000000000 uM, 24 h, replicate values, source data Fig. 2B; listed as BC64C", "result": "78.34% and 90.49% and 98.72% and 114.4% and 78.89% and 75.44% and 171.9% and 124.7% and 104.9%"},
      {"measurement": "Inhibition of parasite growth", "setting": "24 h", "result": "no inhibition of parasite growth up to 100 µM"},
      {"measurement": "IC50", "setting": "[1]", "result": "> 200000", "unit": "nM"},
      {"measurement": "IC50", "setting": "[2]", "result": "> 200000", "unit": "nM"}
    ]},
    {"compound": "CC(C)CCC[C@@H](C)[C@H]1CC[C@H]2[C@@H]3CC=C4C[C@@H](OC(=O)CCC(=O)OC(C)C)CC[C@]4(C)[C@H]3CC[C@]12C", "note": "[C-3-link]", "values": [
      {"measurement": "P. falciparum asexual growth, percentage of control", "setting": "0.781250000 uM, 24 h, replicate values, source data Fig. 2B; listed as GGA3", "result": "138.2% and 69.67% and 108.2% and 127.5% and 114.2% and 69.05% and 145.4% and 89.72% and 93.86%"},
      {"measurement": "P. falciparum asexual growth, percentage of control", "setting": "1.562500000 uM, 24 h, replicate values, source data Fig. 2B; listed as GGA3", "result": "130.3% and 104.4% and 98.52% and 110.7% and 113.3% and 87.62% and 145.2% and 92.88% and 49.26%"},
      {"measurement": "P. falciparum asexual growth, percentage of control", "setting": "3.125000000 uM, 24 h, replicate values, source data Fig. 2B; listed as GGA3", "result": "128.1% and 110.6% (2×) and 120.7% and 130.3% and 119.8% and 103.2% and 132.9% and 71.34%"},
      {"measurement": "P. falciparum asexual growth, percentage of control", "setting": "6.250000000 uM, 24 h, replicate values, source data Fig. 2B; listed as GGA3", "result": "93.75% and 68.17% and 50.04% and 136.5% and 109.3% and 87.77% and 130% and 101.8% and 92.88%"},
      {"measurement": "P. falciparum asexual growth, percentage of control", "setting": "12.500000000 uM, 24 h, replicate values, source data Fig. 2B; listed as GGA3", "result": "119.7% and 70.39% and 47.65% and 137.3% and 124.9% and 51.68% and 112.4% and 101.8% and 77.92%"},
      {"measurement": "P. falciparum asexual growth, percentage of control", "setting": "25.000000000 uM, 24 h, replicate values, source data Fig. 2B; listed as GGA3", "result": "123.1% and 134.3% and 128.6% and 112.3% and 97.18% and 95.88% and 133.7% and 5.942% and 77.98%"},
      {"measurement": "P. falciparum asexual growth, percentage of control", "setting": "50.000000000 uM, 24 h, replicate values, source data Fig. 2B; listed as GGA3", "result": "105.1% and 133.6% and 70.07% and 116% and 103% and 74.44% and 77.73% and 97.2% and 107.5%"},
      {"measurement": "P. falciparum asexual growth, percentage of control", "setting": "100.000000000 uM, 24 h, replicate values, source data Fig. 2B; listed as GGA3", "result": "147.4% and 120% and 109% and 100.9% and 90.73% and 81.6% and 95.19% and 71.65% and 81.81%"},
      {"measurement": "P. falciparum asexual growth, percentage of control", "setting": "200.000000000 uM, 24 h, replicate values, source data Fig. 2B; listed as GGA3", "result": "125% and 120.9% and 88.35% and 101.9% and 79.2% and 19.96% and 163.3% and 103.1% and 105.4%"},
      {"measurement": "Inhibition of parasite growth", "setting": "24 h", "result": "no inhibition of parasite growth up to 200 µM"},
      {"measurement": "IC50", "setting": "[1]", "result": "> 200000", "unit": "nM"},
      {"measurement": "IC50", "setting": "[2]", "result": "> 200000", "unit": "nM"}
    ]},
    {"compound": "CCN(CC)CCCC(C)Nc1ccnc2cc(Cl)ccc12", "note": "(centres unmarked) [Chloroquine, chloroquine, reference compound]", "values": [
      {"measurement": "IC50", "setting": "Plasmodium falciparum, 3D7, 24 h, read-out: IC50, P. falciparum asexual growth inhibition", "result": 10.9, "unit": "nM"},
      {"measurement": "IC50", "setting": "Plasmodium falciparum, 3D7, 48 h, read-out: IC50, P. falciparum asexual growth inhibition", "result": 9.9, "unit": "nM"},
      {"measurement": "IC50", "setting": "Plasmodium falciparum, 3D7, 72 h, read-out: IC50, P. falciparum asexual growth inhibition", "result": 9.7, "unit": "nM"}
    ]},
    {"compound": "CC(C)CCC[C@@H](C)[C@H]1CC[C@H]2[C@@H]3CC=C4C[C@@H](O)CC[C@]4(C)[C@H]3CC[C@]12C", "note": "[Cholesterol, cholesterol]", "values": [
      {"measurement": "Figure 5B dose-response source data (growth, replicate values)", "setting": "Concentration 0.1953125 uM; individual replicates", "result": "97.65 and 98.85 and 95.16 and 99.46 and 98.26 and 98.24 and 102.6 and 96.06 and 94.45"},
      {"measurement": "Figure 5B dose-response source data (growth, replicate values)", "setting": "Concentration 0.390625 uM; individual replicates", "result": "95.8 and 101 and 95.94 and 100.9 and 102.2 and 97.7 and 93.65 and 98.46 and 98.54 and 95.82 and 88.53 and 95.33 and 96.33 and 97.81 and 92.68"},
      {"measurement": "Figure 5B dose-response source data (growth, replicate values)", "setting": "Concentration 0.78125 uM; individual replicates", "result": "99.57 and 96.48 and 97.66 and 98.24 and 100.6 and 107.5 (2×) and 107.4 and 98.35 and 96.07 and 96.59 and 98.18 and 96.9 and 98.19 and 100.3 and 96.94 and 95.15 and 100.1 and 95.95 and 95.21 and 98.02 and 100 and 96.51"},
      {"measurement": "Figure 5B dose-response source data (growth, replicate values)", "setting": "Concentration 1.5625 uM; individual replicates", "result": "98.13 and 98.43 and 98.36 and 100.5 and 96.82 and 110.3 and 108.8 and 107.2 and 96.68 and 92.68 and 85.1 and 96.36 and 98.17 and 96.8 and 101.5 and 98.35 and 94.77 and 99.77 and 99.63 and 99.09 and 97.58 and 93.8 and 94.68"},
      {"measurement": "Figure 5B dose-response source data (growth, replicate values)", "setting": "Concentration 3.125 uM; individual replicates", "result": "99.65 and 95.37 and 96.75 and 101.4 and 107.2 and 106.1 and 106.5 and 104.9 and 98.31 and 99.02 and 98.46 and 95.92 and 100.7 and 98.47 and 104.4 and 98.86 and 101.6 and 91.05 and 95.88 and 95.01 and 101.3 and 96.56 and 97.39"},
      {"measurement": "Figure 5B dose-response source data (growth, replicate values)", "setting": "Concentration 200 uM; individual replicates", "result": "102.2 and 101.3 and 99.63"},
      {"measurement": "Figure 5B dose-response source data (growth, replicate values)", "setting": "Concentration 400 uM; individual replicates", "result": "106.3 and 99.95 and 99.03 and 90.17"},
      {"measurement": "IC50", "setting": "[1]", "result": "> 400000", "unit": "nM"}
    ]}
  ]
}
